{
  "source": "patent US9795647B2",
  "about": "“Compositions and methods for modulating inflammatory potential” (New Chapter Inc., priority 2009, dated 2017)",
  "key": {"[1]": {"tested_on": "beta-cell", "settings": "0.5 mmol/l, medium with 5.5, 11.1 or 33.3 mmol/l glucose, 4 days; cited from earlier work"}, "[2]": {"tested_on": "gram-positive bacteria", "settings": "purified cPA (>99%); cited from earlier work"}, "[3]": {"tested_on": "Selenomonas artemidis", "settings": "only one of 45 compounds surveyed; cited from earlier work"}, "[4]": {"tested_on": "A549 cells", "assay": "Proliferation of A549 nonsmall cell lung cancer cells (overexpress COX-2)", "format": "cell-based, human", "settings": "A549 overexpress COX-2", "source_text": "The antitumor efficacy of specifically formulated fish oil 30 diets was studied in human lung cancer A549 xenograft (over expression of COX-2) and H1299 xenograft (lack of COX-2 expression).\nFIG. 17 illustrates the relative effect of WholeMega and two commercial fish oil products to inhibit proliferation of human A549 nonsmall cell lung cancer cells (top figure) and human H1299 nonsmall cell lung cancer cells (bottom figure). A549 cells overexpress COX-2, as many cancer cells are known to do. […] The A549 cells over-express COX-2 which normally results in an over-expression/production of PGE2. When provided with an alternate substrate, however, such as fish oil EPA, the resulting product is PGE3 rather than PGE2. […] Clearly, at least one structural feature unique to the Wholemega composition contributes an additional anti-tumor effect. One possibility is that that other oils in Wholemega (omega-5, omega-7 and omega-9 oils), that are not present in the other two fish oils, contribute to an additional inhibitory effect on the growth of the cancer cells. Another possibility would be the relative fractions of certain oils to one another. Yet another possibility would be the herbal oil component, e.g. SCE rosemary and SCE oregano) contribute an added inhibitory effect on the growth of the cancer cells. […]"}},
  "data": [
    {"smiles": "CCCCCC/C=C\\CCCCCCCC(=O)O", "note": "[palmitoleic acid]", "values": [
      {"measurement": "beta-cell DNA fragmentation", "setting": "[1]", "value": "did not affect"}
    ]},
    {"smiles": "CCCCCCCCC/C=C\\CCCCC(=O)O", "note": "[cPA, palmitoleic acid (C16:1delta6, cPA)]", "values": [
      {"measurement": "minimal inhibitory concentration (MIC)", "setting": "[2]", "value": "10 to 20", "unit": "µg/mL"}
    ]},
    {"smiles": "CCCCC=CCCCCCCCC(=O)O", "note": "[myristoleic acid, 9-tetradecenoic acid]", "values": [
      {"measurement": "inhibitory concentration towards S. artemidis", "setting": "[3]", "value": "< 100", "unit": "micrograms/ml"}
    ]},
    {"smiles": "CCCCC[C@H](O)/C=C/[C@H]1[C@H](O)CC(=O)[C@@H]1C/C=C\\CCCC(=O)O", "note": "[PGE2]", "values": [
      {"measurement": "effect on proliferation of A549 cells", "setting": "[4]", "value": "slightly stimulates proliferation"}
    ]},
    {"smiles": "CC/C=C\\C[C@H](O)/C=C/[C@H]1[C@H](O)CC(=O)[C@@H]1C/C=C\\CCCC(=O)O", "note": "[PGE3]", "values": [
      {"measurement": "effect on proliferation of A549 cells", "setting": "[4]", "value": "inhibits proliferation"}
    ]}
  ]
}
